Target: T1, lymphokine-activated killer T-cell-originated protein kinase (TOPK) (Homo sapiens, UniProt Q96KB5)
T1 sequence (Q96KB5 1-322): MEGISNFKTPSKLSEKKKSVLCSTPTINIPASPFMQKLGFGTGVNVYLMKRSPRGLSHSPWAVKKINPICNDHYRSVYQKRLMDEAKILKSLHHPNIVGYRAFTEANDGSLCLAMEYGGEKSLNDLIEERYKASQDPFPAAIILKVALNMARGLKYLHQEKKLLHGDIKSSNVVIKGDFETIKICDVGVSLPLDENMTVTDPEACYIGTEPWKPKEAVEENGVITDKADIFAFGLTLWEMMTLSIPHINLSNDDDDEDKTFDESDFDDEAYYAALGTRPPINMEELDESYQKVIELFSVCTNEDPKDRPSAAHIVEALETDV
Assay: in vitro TOPK kinase assay
Format: biochemical

Cc1cc(O)c(-c2ccc([C@@H](C)CNc3ccc([N+](=O)[O-])c4nonc34)cc2)c2c1[nH]c(=O)c1sccc12 [TOPKi-NBD, (R)-8-hydroxy-6-methyl-9-(4-(1-((7-nitrobenzo[c][1,2,5]oxadiazol-4-yl)amino)propan-2-yl)phenyl)thieno[2,3-c]quinolin-4(5H)-one]
EC50: 490 ± 170 nM

— paper PMC7080599 (European journal of nuclear medicine and molecular imaging, 2019)
